Converted amounts (≈) assume the structure as drawn. Read-outs that look alike come from different tables or passages of the source.
Key:
SU-DHL-6 cells = assay: CellTiter-Glo in vitro cell proliferation assay, Example 8; format: cell-based; conditions: Homo sapiens, Example 24, SU-DHL-6, Diffuse Large B-Cell Lymphoma
Description: (§1) In this Example, in vitro cell proliferation assays were performed using: (1) Human Myeloma tumor cell lines; (2) Human Lymphoma tumor cell lines; (3) Solid Human tumor cell lines; and (4) Parental, Lenalidomide resistant and Bortezomib resistant Jeko-1 Mantle cell Lymphoma tumor cell lines. The compounds tested were three diharmaline compounds, namely the 518B562 (or simply 562), 560, and 561 compounds. In addition, a monoharmaline product designated as 518F014 was also tested. This monoharmaline product had the following structure:
(§2) Each proliferation assay was carried out as follows. The test cells were plated in growth media using a 384-well microtiter plate at 50 μL volume. The cells were incubated for 24 hours at 37° C. in a humidified incubator. After 24 hours of incubation, the test compounds were added to the test wells in DSMO solvent, at concentrations ranging from 0.0075-100 μM. Control wells received equal volumes of DSMO, without compound. Following drugging, the cells were incubated for 72 hours at 37° C. in a humidified incubator. After this exposure, 100 μL of a 1:1 mixture of sterile water and CellTiter-Glo® reagent (Promega) was added to each well. The plates were then incubated for 60 minutes at room temperature, followed by recording the luminescence value of each well using a luminometer as a measure of cell proliferation.

SU-DHL-4 cells = assay: as above; format: cell-based; conditions: Homo sapiens, Example 24, SU-DHL-4, Diffuse Large B-Cell Lymphoma
Description: as §1, §2

RXF-393 cells = assay: as above; format: cell-based; conditions: Homo sapiens, Example 24, RXF-393, RCC
Description: as §1, §2

N87 cells = assay: as above; format: cell-based; conditions: Homo sapiens, Example 24, N87, Gastric
Description: as §1, §2

[1] = system: Human Myeloma, Human Lymphoma, Solid Human tumor and Jeko-1 tumor cell lines; assay: CellTiter-Glo in vitro cell proliferation assay, Example 8, whole panel; format: cell-based; conditions: cell lines of Table 16
Description: as §1, §2

MOLP-8 cells = assay: CellTiter-Glo in vitro cell proliferation assay, Example 8; format: cell-based, Human; conditions: Example 24, MOLP-8, human myeloma
Outline: (§3)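 In this 3-day viability format, cells were drugged 24 h after plating across 0.0075–100 μM. CellTiter-Glo, mixed 1:1 with sterile water, was applied at the end and luminescence read after 60 min at room temperature.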

HCC70 cells = assay: as above; format: cell-based, Human; conditions: Homo sapiens, Example 24, HCC70, Triple Negative Breast
Outline: as §3

KMM-1 cells = assay: as above; format: cell-based, Human; conditions: Example 24, KMM-1, human myeloma
Outline: as §3

BxPC-3 cells = assay: as above; format: cell-based, Human; conditions: Homo sapiens, Example 24, BxPC-3, Pancreatic
Outline: as §3

H1650 (EGFR mut) cells = assay: as above; format: cell-based, Human; conditions: Homo sapiens, NCI-H1650, Example 24, Non Small Cell Lung
Outline: as §3

H929 cells = assay: as above; format: cell-based, Human; conditions: NCI-H929, Example 24, H929, human myeloma
Outline: as §3

KMS-27 cells = assay: as above; format: cell-based, Human; conditions: Example 24, KMS-27, human myeloma
Outline: as §3

MM.1s cells = assay: as above; format: cell-based, Human; conditions: MM1.S, Example 24, MM.1S, human myeloma
Outline: as §3

SiHA cells = assay: as above; format: cell-based, Human; conditions: Homo sapiens, Example 24, Squamous
Outline: as §3

KMS-11 cells = assay: as above; format: cell-based, Human; conditions: Example 24, KMS-11, human myeloma
Outline: as §3

L363 cells = assay: as above; format: cell-based, Human; conditions: L-363, Example 24, L363, human myeloma
Outline: as §3

KHM-1B cells = assay: as above; format: cell-based, Human; conditions: Example 24, human myeloma
Outline: as §3

MDA-MB-231 cells = assay: as above; format: cell-based, Human; conditions: Homo sapiens, Example 24, MDA-MB-231, Triple Negative Breast
Outline: as §3

A498 cells = assay: as above; format: cell-based, Human; conditions: Homo sapiens, Example 24, A498, RCC
Outline: as §3

MDA-MB-468 cells = assay: as above; format: cell-based, Human; conditions: Homo sapiens, Example 24, MDA-MB-468, Triple Negative Breast
Outline: as §3

AN3CA cells = assay: as above; format: cell-based, Human; conditions: Homo sapiens, AN3-CA, Example 24, Endometrial
Outline: as §3

HEC-1a cells = assay: as above; format: cell-based, Human; conditions: Homo sapiens, Example 24, Endometrial
Outline: as §3

OCI-LY3 cells = assay: as above; format: cell-based, Human; conditions: Homo sapiens, Example 24, OCI-LY3, Diffuse Large B-Cell Lymphoma
Outline: as §3

H1975 (EGFR mut) cells = assay: as above; format: cell-based, Human; conditions: Homo sapiens, NCI-H1975, Example 24, Non Small Cell Lung
Outline: as §3

ASPC-1 cells = assay: as above; format: cell-based, Human; conditions: Homo sapiens, ASPC1, Example 24, ASPC-1, Pancreatic
Outline: as §3

IC50 (SU-DHL-6 cells; read-out: Mean): 2.36 µg/mL (≈ 3.87 µM) | IC50 (SU-DHL-6 cells; read-out: Trial A): 2.48 µg/mL (≈ 4.07 µM) | IC50 (SU-DHL-6 cells; read-out: Trial B): 2.23 µg/mL (≈ 3.67 µM) | IC50 (SU-DHL-4 cells; read-out: Mean): 2.73 µg/mL (≈ 4.49 µM) | IC50 (SU-DHL-4 cells; read-out: Trial A): 2.77 µg/mL (≈ 4.55 µM) | IC50 (SU-DHL-4 cells; read-out: Trial B): 2.7 µg/mL (≈ 4.44 µM) | IC50 (BxPC-3 cells; read-out: Mean): 3.39 µg/mL (≈ 5.56 µM) | IC50 (BxPC-3 cells; read-out: Trial A): 3.45 µg/mL (≈ 5.66 µM) | IC50 (BxPC-3 cells; read-out: Trial B): 3.33 µg/mL (≈ 5.46 µM) | IC50 (H1650 (EGFR mut) cells; read-out: Mean): 2.58 µg/mL (≈ 4.23 µM) | IC50 (H1650 (EGFR mut) cells; read-out: Trial A): 2.61 µg/mL (≈ 4.28 µM) | IC50 (H1650 (EGFR mut) cells; read-out: Trial B): 2.55 µg/mL (≈ 4.19 µM) | IC50 (H929 cells; read-out: Mean): 5.96 µg/mL (≈ 9.79 µM) | IC50 (H929 cells; read-out: Trial A): 6.5 µg/mL (≈ 10.7 µM) | IC50 (H929 cells; read-out: Trial B): 5.42 µg/mL (≈ 8.9 µM) | IC50 (MM.1s cells; read-out: Mean): 2.57 µg/mL (≈ 4.22 µM) | IC50 (MM.1s cells; read-out: Trial A): 2.48 µg/mL (≈ 4.08 µM) | IC50 (MM.1s cells; read-out: Trial B): 2.66 µg/mL (≈ 4.36 µM) | IC50 (MDA-MB-231 cells; read-out: Mean): 3.09 µg/mL (≈ 5.08 µM) | IC50 (MDA-MB-231 cells; read-out: Trial A): 3.1 µg/mL (≈ 5.09 µM) | IC50 (MDA-MB-231 cells; read-out: Trial B): 3.08 µg/mL (≈ 5.07 µM) | IC50 (MDA-MB-468 cells; read-out: Mean): 2.79 µg/mL (≈ 4.58 µM) | IC50 (MDA-MB-468 cells; read-out: Trial A): 2.9 µg/mL (≈ 4.76 µM) | IC50 (MDA-MB-468 cells; read-out: Trial B): 2.68 µg/mL (≈ 4.41 µM) | IC50 (OCI-LY3 cells; read-out: Mean): 5.7 µg/mL (≈ 9.37 µM) | IC50 (OCI-LY3 cells; read-out: Trial A): 3.87 µg/mL (≈ 6.35 µM) | IC50 (OCI-LY3 cells; read-out: Trial B): 7.54 µg/mL (≈ 12.4 µM) | IC50 (H1975 (EGFR mut) cells; read-out: Mean): 2.9 µg/mL (≈ 4.76 µM) | IC50 (H1975 (EGFR mut) cells; read-out: Trial A): 2.92 µg/mL (≈ 4.8 µM) | IC50 (H1975 (EGFR mut) cells; read-out: Trial B): 2.87 µg/mL (≈ 4.71 µM) | IC50 (ASPC-1 cells; read-out: Mean): 3.47 µg/mL (≈ 5.7 µM) | IC50 (ASPC-1 cells; read-out: Trial A): 2.94 µg/mL (≈ 4.83 µM) | IC50 (ASPC-1 cells; read-out: Trial B): 3.99 µg/mL (≈ 6.56 µM)
SMILES: COc1ccc2c3c([nH]c2c1)C(CC(CC1=NCCc2c1[nH]c1cc(OC)ccc21)c1cccc(Oc2ccccc2)c1)=NCC3 [compound 594, diharmaline 3-phenoxybenzaldehyde]
IC50 (RXF-393 cells; read-out: Mean): 3.16 µg/mL (≈ 5.19 µM) | IC50 (RXF-393 cells; read-out: Trial A): 3.16 µg/mL (≈ 5.19 µM) | IC50 (RXF-393 cells; read-out: Trial B): 3.16 µg/mL (≈ 5.19 µM) | IC50 (N87 cells; read-out: Mean): 4.26 µg/mL (≈ 7 µM) | IC50 (N87 cells; read-out: Trial A): 3.48 µg/mL (≈ 5.72 µM) | IC50 (N87 cells; read-out: Trial B): 5.04 µg/mL (≈ 8.27 µM) | effectiveness in cell proliferation assays [1]: effective against a wide variety of cancer cells | IC50 (MOLP-8 cells; read-out: Mean): 2.72 µg/mL (≈ 4.47 µM) | IC50 (MOLP-8 cells; read-out: Trial A): 2.73 µg/mL (≈ 4.49 µM) | IC50 (MOLP-8 cells; read-out: Trial B): 2.7 µg/mL (≈ 4.44 µM) | IC50 (HCC70 cells; read-out: Mean): 6.87 µg/mL (≈ 11.3 µM) | IC50 (HCC70 cells; read-out: Trial A): 6.15 µg/mL (≈ 10.1 µM) | IC50 (HCC70 cells; read-out: Trial B): 7.59 µg/mL (≈ 12.5 µM) | IC50 (KMM-1 cells; read-out: Mean): 2.57 µg/mL (≈ 4.22 µM) | IC50 (KMM-1 cells; read-out: Trial A): 2.53 µg/mL (≈ 4.15 µM) | IC50 (KMM-1 cells; read-out: Trial B): 2.61 µg/mL (≈ 4.28 µM) | IC50 (KMS-27 cells; read-out: Mean): 4.14 µg/mL (≈ 6.79 µM) | IC50 (KMS-27 cells; read-out: Trial A): 5.54 µg/mL (≈ 9.1 µM) | IC50 (KMS-27 cells; read-out: Trial B): 2.73 µg/mL (≈ 4.49 µM) | IC50 (SiHA cells; read-out: Mean): 8.73 µg/mL (≈ 14.3 µM) | IC50 (SiHA cells; read-out: Trial A): 8.56 µg/mL (≈ 14.1 µM) | IC50 (SiHA cells; read-out: Trial B): 8.89 µg/mL (≈ 14.6 µM) | IC50 (KMS-11 cells; read-out: Mean): 6.04 µg/mL (≈ 9.92 µM) | IC50 (KMS-11 cells; read-out: Trial A): 6.43 µg/mL (≈ 10.6 µM) | IC50 (KMS-11 cells; read-out: Trial B): 5.64 µg/mL (≈ 9.27 µM) | IC50 (L363 cells; read-out: Mean): 3.64 µg/mL (≈ 5.98 µM) | IC50 (L363 cells; read-out: Trial A): 3.67 µg/mL (≈ 6.03 µM) | IC50 (L363 cells; read-out: Trial B): 3.6 µg/mL (≈ 5.92 µM) | IC50 (KHM-1B cells; read-out: Mean): 6.65 µg/mL (≈ 10.9 µM) | IC50 (KHM-1B cells; read-out: Trial A): 6.48 µg/mL (≈ 10.6 µM) | IC50 (KHM-1B cells; read-out: Trial B): 6.81 µg/mL (≈ 11.2 µM) | IC50 (A498 cells; read-out: Mean): 4.69 µg/mL (≈ 7.7 µM) | IC50 (A498 cells; read-out: Trial A): 4.82 µg/mL (≈ 7.91 µM) | IC50 (A498 cells; read-out: Trial B): 4.56 µg/mL (≈ 7.49 µM) | IC50 (AN3CA cells; read-out: Mean): 2.79 µg/mL (≈ 4.59 µM) | IC50 (AN3CA cells; read-out: Trial A): 2.79 µg/mL (≈ 4.59 µM) | IC50 (AN3CA cells; read-out: Trial B): 2.8 µg/mL (≈ 4.59 µM) | IC50 (HEC-1a cells; read-out: Mean): 3.29 µg/mL (≈ 5.4 µM) | IC50 (HEC-1a cells; read-out: Trial A): 3.15 µg/mL (≈ 5.17 µM) | IC50 (HEC-1a cells; read-out: Trial B): 3.42 µg/mL (≈ 5.63 µM)

From patent US12129265B2, “Therapeutic agents and uses thereof” (Ankh Life Sciences Limited, priority 2020, dated 2024)
